Here are results for 1 molecule from paper PMC10485003, “Antibiotic hyper-resistance in a class I aminoacyl-tRNA synthetase with altered active site signature motif” (Nature Communications, 2023).

One assay deals with IleRS2. As to the kind of experiment: Mupirocin inhibition of IleRS2 compared with IleRS1. Type of assay: biochemical, bacteria. The note with it: IleRS1 strongly, IleRS2 modestly inhibited.
In another assay the target is SgIleRS2. As to conditions: non-canonical motif; cited from earlier work.
A further assay deals with wt-HMGH PmIleRS1. The note with it: amino acid activation step; ATP/PPi exchange assay; Ile varied; slow tight binding inhibitor; read-out: KI (MUP)Ile; cited from earlier work.
A further assay concerns the target IleRS1. Also noted: method as in PMID 6258580, PMID 9822630. As to conditions: type 1 proteins strongly inhibited; cited from earlier work.
For another assay, the target named is ScIleRS2. As to conditions: activation step, absence of tRNA; cited from earlier work.

Usually Ki stands for the dissociation constant of the complex between target and ligand, obtained from inhibition or displacement. For the molecule `C/C(=C\C(=O)OCCCCCCCCC(=O)O)C[C@@H]1OC[C@H](C[C@@H]2O[C@H]2[C@@H](C)[C@H](C)O)[C@@H](O)[C@H]1O` [mupirocin], the “difference in Ki between IleRS1 and IleRS2” value in the assay on IleRS2 is on record as 10^3−10^5 fold. Further, at SgIleRS2, the Ki for mupirocin result was “mM range”. Moreover, the Ki was 0.00029 ± 2e-05 µM on wt-HMGH PmIleRS1, “low nanomolar range” at IleRS1 and 8.6 µM at ScIleRS2.
